# Source: ChEMBL document CHEMBL5500331, “Discovery of novel peptide-dehydroepiandrosterone hybrids inducing endoplasmic reticulum stress with effective in vitro and in vivo anti-melanoma activities” (Eur J Med Chem, 2024)
# The source made the active and inactive calls. The rule behind the calls is not given here.
# Key:
# B16 [1] = assay: Induction of endoplasmic reticulum (ER) stress in mouse B16 cells assessed as increase in CHOP expression at 9.70 uM measured after 48 hrs by Western blot analysis; type: functional, cell-based; settings: dose 9.7 µM
# B16 [2] = assay: Antiproliferative activity against mouse B16 cells measured after 48 hrs by MTT assay; type: functional, cell-based; settings: B16, 48 h
# B16 [3] = assay: Induction of apoptosis in mouse B16 cells at 4.85 uM measured after 48 hrs by annexin-V/PI double staining based flow cytometry analysis; type: functional, cell-based
# B16 [4] = assay: Upregulation of caspase 3 expression in mouse B16 cells at 9.70 uM measured after 48 hrs by Western blot analysis; type: functional, cell-based; settings: dose 9.7 µM
# B16 [5] = assay: Upregulation of caspase 8 expression in mouse B16 cells at 9.70 uM measured after 48 hrs by Western blot analysis; type: functional, cell-based; settings: dose 9.7 µM
# B16 [6] = assay: Upregulation of […] expression in mouse B16 cells at 9.70 uM measured after 48 hrs by Western blot analysis; type: functional, cell-based; settings: dose 9.7 µM
# B16 [7] = assay: Downregulation of Bcl-2 expression in mouse B16 cells at 9.70 uM measured after 48 hrs by Western blot analysis; type: functional, cell-based; settings: dose 9.7 µM
# B16 [8] = assay: Induction of endoplasmic reticulum (ER) stress in mouse B16 cells assessed as increase in […] expression at 9.70 uM measured after 48 hrs by Western blot analysis; type: functional, cell-based; settings: dose 9.7 µM
# B16 [9] = assay: Induction of endoplasmic reticulum (ER) stress in mouse B16 cells assessed as decrease in alix expression at 9.70 uM measured after 48 hrs by Western blot analysis; type: functional, cell-based; settings: dose 9.7 µM
# B16 [10] = assay: Induction of endoplasmic reticulum (ER) stress in mouse B16 cells assessed as appearance of damaged ER at 9.70 uM measured after 24 hrs by confocal microscopy based analysis; type: functional, cell-based; settings: dose 9.7 µM
# B16 [11] = assay: Induction of endoplasmic reticulum (ER) stress in mouse B16 cells assessed as appearance of vacuolated ER at 9.70 uM measured after 24 hrs by confocal microscopy based analysis; type: functional, cell-based; settings: dose 9.7 µM
# B16 [12] = assay: Induction of endoplasmic reticulum (ER) stress in mouse B16 cells assessed as fragmented distribution at 25 uM measured after 24 hrs by confocal microscopy based analysis; type: functional, cell-based
# [13] = Inhibition of cell migration in mouse B16 cells at 9.70 uM measured after 48 hrs by scratch-wound healing assay relative to control; type: functional
# [14] = Inhibition of cell migration in mouse B16 cells at 9.70 uM measured after 24 hrs by crystal violet staining based analysis relative to control; type: functional
# [15] = Inhibition of cell invasion in mouse B16 cells at 9.70 uM measured after 24 hrs by crystal violet staining based analysis relative to control; type: functional
# [16] = Toxicity in Kunming mouse assessed as effect on body weight at 60 mg/kg, IG measured after 21 days; type: organism-based; settings: in vivo, po, 504 h, time 21 day
# [17] = Toxicity in Kunming mouse assessed as effect on body weight at 40 mg/kg, IG measured after 21 days; type: organism-based; settings: in vivo, po, 504 h, time 21 day
# [18] = Toxicity in Kunming mouse assessed as effect on body weight at 80 mg/kg, IG measured after 21 days; type: organism-based; settings: in vivo, po, 504 h, time 21 day
# [19] = Toxicity in Kunming mouse assessed as increase in survival rate at 60 mg/kg, IG measured after 27 days relative to control; type: organism-based; settings: in vivo, po, time 27 day
# [20] = Toxicity in Kunming mouse assessed as increase in survival rate at 80 mg/kg, IG measured after 27 days relative to control; type: organism-based; settings: in vivo, po, time 27 day
# B16 [21] = assay: Anti-melanoma activity against mouse B16 cells xenografted in Kunming mouse model assessed as reduction in tumor volume at 40 to 80 mg/kg, IG measured after 5 days; type: functional, organism-based; settings: dose 40-80 mg/kg, time 5.0 day
# B16 [22] = assay: Anti-melanoma activity against mouse B16 cells xenografted in Kunming mouse model assessed as reduction in tumor volume at 60 to 80 mg/kg, IG measured after 7 to 27 days; type: functional, organism-based; settings: dose 60-80 mg/kg, time 7-27 day
# B16 [23] = assay: Anti-melanoma activity against mouse B16 cells xenografted in Kunming mouse model assessed as reduction in tumor volume at 40 mg/kg, IG measured after 7 to 27 days; type: functional, organism-based; settings: time 7-27 day
# B16 [24] = assay: Anti-melanoma activity against mouse B16 cells xenografted in Kunming mouse model assessed as reduction in tumor volume at 60 to 80 mg/kg, IG measured after 11 days relative to control; type: functional; set-up: scale not given: the % may be the effect or the level left; settings: dose 60-80 mg/kg, time 11 day
# B16 [25] = assay: Anti-melanoma activity against mouse B16 cells xenografted in Kunming mouse model assessed as reduction in tumor volume at 40 mg/kg, IG measured after 19 days; type: functional, organism-based; settings: time 19.0 day
# B16 [26] = assay: Anti-melanoma activity against mouse B16 cells xenografted in Kunming mouse model assessed as suppression of tumor weight at 60 mg/kg, IG measured every two days for 27 days (reference value: 10.61+/-1.05g); type: functional; settings: time 27 day
# B16 [27] = assay: Anti-melanoma activity against mouse B16 cells xenografted in Kunming mouse model assessed as suppression of tumor weight at 80 mg/kg, IG measured every two days for 27 days (reference value: 10.61+/-1.05g); type: functional; settings: time 27 day
# B16 [28] = assay: Anti-melanoma activity against mouse B16 cells xenografted in Kunming mouse model assessed as inhibition of tumor weight at 60 mg/kg, IG measured every two days for 27 days relative to control; type: functional; set-up: scale not given: the % may be the effect or the level left; settings: time 27 day
# B16 [29] = assay: Anti-melanoma activity against mouse B16 cells xenografted in Kunming mouse model assessed as inhibition of tumor weight at 80 mg/kg, IG measured every two days for 27 days relative to control; type: functional; set-up: scale not given: the % may be the effect or the level left; settings: time 27 day
# B16 [30] = assay: Anti-melanoma activity against mouse B16 cells xenografted in Kunming mouse model assessed as inhibition of tumor weight at 40 mg/kg, IG measured every two days for 27 days relative to control; type: functional; set-up: scale not given: the % may be the effect or the level left; settings: time 27 day
# B16 [31] = assay: Anti-melanoma activity against mouse B16 cells xenografted in Kunming mouse model assessed as suppression of tumor weight at 40 mg/kg, IG measured every two days for 27 days (reference value: 10.61+/-1.05g); type: functional; settings: time 27 day
# B16 [32] = assay: Anti-melanoma activity against mouse B16 cells xenografted in Kunming mouse model assessed as increase in caspase 3 expression at 40 to 60 mg/kg, IG measured after 27 days by IHC staining based analysis; type: functional, organism-based; settings: dose 40-60 mg/kg, time 27.0 day
# B16 [33] = assay: Anti-melanoma activity against mouse B16 cells xenografted in Kunming mouse model assessed as increase in caspase 8 expression at 40 to 60 mg/kg, IG measured after 27 days by IHC staining based analysis; type: functional, organism-based; settings: dose 40-60 mg/kg, time 27.0 day
# B16 [34] = assay: Anti-melanoma activity against mouse B16 cells xenografted in Kunming mouse model assessed as increase in bax expression at 40 to 60 mg/kg, IG measured after 27 days by IHC staining based analysis; type: functional, organism-based; settings: dose 40-60 mg/kg, time 27.0 day
# B16 [35] = assay: Anti-melanoma activity against mouse B16 cells xenografted in Kunming mouse model assessed as decrease in bcl-2 level at 40 to 60 mg/kg, IG measured after 27 days by IHC staining based analysis; type: functional, organism-based; settings: dose 40-60 mg/kg, time 27.0 day
# [36] = Antiproliferative activity against human Prostate tumor cell line at 25 uM measured after 48 hrs by MTT assay relative to control; type: functional
# [37] = Drug metabolism in mouse plasma assessed as abiraterone Cmax at 20 mg/kg, IG; type: ADME, organism-based; settings: in vivo, po
# [38] = Drug metabolism in mouse plasma assessed as abiraterone Tmax at 20 mg/kg, IG; type: ADME, organism-based; settings: in vivo, po
structure (smiles),measurement,setting,value
CC(C)[C@H](NC(=O)CN)C(=O)O[C@H]1CC[C@@]2(C)C(=CC[C@@H]3[C@@H]2CC[C@]2(C)C(c4cccnc4)=CC[C@@H]32)C1,Activity,B16 [1],Active
same,IC50,B16 [2],9.7 µM
same,Activity,B16 [3],Active
same,Activity,B16 [4],Active
same,Activity,B16 [5],Active
same,Activity,B16 [6],Active
same,Activity,B16 [7],Active
same,Activity,B16 [8],Active
same,Activity,B16 [9],Active
same,Activity,B16 [10],Active
same,Activity,B16 [11],Active
same,Activity,B16 [12],Active
same,inhibition at 9.7 µM,[13],66%
same,inhibition at 9.7 µM,[14],70%
same,inhibition at 9.7 µM,[15],~65%
same,Activity,[16],Non-Toxic
same,Activity,[17],Toxic
same,Activity,[18],Non-Toxic
same,survival at 648 h,[19],100%
same,survival at 648 h,[20],100%
same,Activity,B16 [21],Active
same,Activity,B16 [22],Active
same,Activity,B16 [23],inactive
same,Activity,B16 [24],100%
same,Activity,B16 [25],Active
same,Activity,B16 [26],0.1 g
same,Activity,B16 [27],0.23 g
same,Activity,B16 [28],98.12%
same,Activity,B16 [29],99.06%
same,Activity,B16 [30],83.96%
same,Activity,B16 [31],1.7 g
same,Activity,B16 [32],Active
same,Activity,B16 [33],Active
same,Activity,B16 [34],Active
same,Activity,B16 [35],Active
same,Activity,[36],13.6%
same,Cmax,[37],55.8 ng/mL
same,Tmax,[38],8 h
